Converted amounts (≈) assume the structure as drawn.
Experiments:
Escherichia coli [1] = experiment: Antibacterial activity against Escherichia coli assessed as bacterial growth inhibition at 50 uM measured after 24 hrs by 96-wellplate reader assay method; type: functional
[2] = tested on: Mycobacterium tuberculosis; experiment: Antimycobacterial activity against Mycobacterium tuberculosis H37Rv assessed as reduction in bacterial growth incubated for 7 days by dye based assay; type: functional; conditions: 168 h, time 7 day
Moraxella catarrhalis = experiment: Antibacterial activity against Moraxella catarrhalis assessed as inhibition in bacterial growth measured after 24 hrs by broth microdilution method; type: functional
Staphylococcus aureus [3] = experiment: Antibacterial activity against Staphylococcus aureus assessed as inhibition of bacterial growth measured after 24 hrs; type: functional
Staphylococcus aureus [4] = experiment: Antibacterial activity against Staphylococcus aureus ATCC 29213 assessed as bacterial growth inhibition incubated for 24 hrs by broth dilution method; type: functional
Staphylococcus aureus [5] = experiment: Antibacterial activity against Methicillin-resistant Staphylococcus aureus ATCC 33592 assessed as bacterial growth inhibition measured after 24 hrs by broth dilution method; type: functional
[6] = Inhibition of Francisella tularensis FabI by addition of crotonyl-CoA as substrate preincubated for 10 mins followed by substrate addition in presence of NAD by spectrophotometer
Staphylococcus aureus [7] = experiment: Antibacterial activity against Methicillin-resistant Staphylococcus aureus N315 assessed as reduction in bacterial growth; type: functional
[8] = biological target: T1, Enoyl-[acyl-carrier-protein] reductase [NADPH] FabI (Staphylococcus aureus, UniProt Q6GI75); experiment: Inhibition of Staphylococcus aureus FabI in the presence of NADH using crotonyl CoA as substrate by measuring NADH consumption rate
T1 sequence (Q6GI75 whole entry): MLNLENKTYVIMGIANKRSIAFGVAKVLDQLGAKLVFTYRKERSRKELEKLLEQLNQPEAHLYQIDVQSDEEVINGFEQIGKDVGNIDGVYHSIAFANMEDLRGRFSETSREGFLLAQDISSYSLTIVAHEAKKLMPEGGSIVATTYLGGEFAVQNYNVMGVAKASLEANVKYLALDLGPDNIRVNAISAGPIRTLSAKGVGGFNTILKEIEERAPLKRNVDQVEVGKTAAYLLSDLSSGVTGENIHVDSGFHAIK

[9] = biological target: T2, Enoyl-[acyl-carrier-protein] reductase [NADH] FabI (Escherichia coli K-12, UniProt P0AEK4); experiment: Inhibition of Escherichia coli FabI in the presence of NADH using crotonyl CoA as substrate by measuring NADH consumption rate
T2 sequence (P0AEK4 whole entry): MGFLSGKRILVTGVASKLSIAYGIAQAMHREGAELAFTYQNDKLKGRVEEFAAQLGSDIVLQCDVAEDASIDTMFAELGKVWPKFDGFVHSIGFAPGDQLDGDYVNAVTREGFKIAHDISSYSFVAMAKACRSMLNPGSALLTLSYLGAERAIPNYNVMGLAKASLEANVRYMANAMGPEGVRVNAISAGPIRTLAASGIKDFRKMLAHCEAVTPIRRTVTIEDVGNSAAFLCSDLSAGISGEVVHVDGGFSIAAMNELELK

Staphylococcus aureus [10] = experiment: Antibacterial activity against methicillin-sensitive Staphylococcus aureus assessed as reduction in bacterial growth incubated for 12 hrs by microdilution method; type: functional
Staphylococcus aureus [11] = experiment: Antibacterial activity against methicillin resistant Staphylococcus aureus assessed as reduction in bacterial growth incubated for 12 hrs by microdilution method; type: functional
HeLa = experiment: Cytotoxicity against human HeLa cells assessed as inhibition of cell growth incubated for 48 hrs by CCK8 assay; type: functional, cell-based
Staphylococcus aureus [12] = experiment: Bactericidal activity against methicillin-resistant Staphylococcus aureus measured after 24 hrs by sub-culturing; type: functional
Bacillus anthracis = experiment: Antibacterial activity against Bacillus anthracis assessed as reduction in bacterial growth measured after 24 hrs by broth microdilution method; type: functional
[13] = Cytotoxicity against mouse MH-S cells; type: functional, cell-based
[14] = Inhibition of Bacillus anthracis enoyl ACP reductase assessed as inhibition of bacterial growth
[15] = tested on: Mycobacterium tuberculosis; experiment: Antibacterial activity against Mycobacterium tuberculosis assessed as inhibition of […]; type: functional
Escherichia coli [16] = experiment: Antibacterial activity against Escherichia coli assessed as inhibition of bacterial growth measured after 24 hrs by micro-dilution broth method; type: functional
Klebsiella pneumoniae [17] = experiment: Antibacterial activity against Klebsiella pneumoniae BAA-1705 assessed as inhibition of bacterial growth measured after 24 hrs by micro-dilution broth method; type: functional
Acinetobacter baumannii [18] = experiment: Antibacterial activity against Acinetobacter baumannii W41979 assessed as inhibition of bacterial growth measured after 24 hrs by micro-dilution broth method; type: functional
Pseudomonas aeruginosa = experiment: Antibacterial activity against Pseudomonas aeruginosa assessed as bacterial growth inhibition measured after 24 hrs by micr-dilution broth method; type: functional
Enterobacter cloacae = experiment: Antibacterial activity against Enterobacter cloacae assessed as inhibition of bacterial growth measured after 24 hrs by micro-dilution broth method; type: functional
Staphylococcus aureus [19] = experiment: Antibacterial activity against Staphylococcus aureus assessed as inhibition of bacterial growth measured after 24 hrs by micro-dilution broth method; type: functional
Staphylococcus aureus [20] = experiment: Antibacterial activity against Methicillin-sensitive Staphylococcus aureus ATCC 4330 assessed as reduction in bacterial growth; type: functional
Staphylococcus aureus [21] = experiment: Antibacterial activity against methicillin-resistant Staphylococcus aureus ATCC 4330 assessed as reduction in bacterial growth; type: functional
[22] = biological target: T1, Enoyl-[acyl-carrier-protein] reductase [NADPH] FabI; experiment: Inhibition of Staphylococcus aureus ATCC 29213 FabI in the presence of NADH using crotonyl CoA as substrate by measuring NADH consumption rate
Staphylococcus aureus [23] = experiment: Antibacterial activity against quinolone-resistant Staphylococcus aureus; type: functional
Klebsiella pneumoniae [24] = experiment: Antibacterial activity against Klebsiella pneumoniae BAA-1705; type: functional
Acinetobacter baumannii [25] = experiment: Antibacterial activity against Acinetobacter baumannii W41979; type: functional
Escherichia coli [26] = experiment: Antibacterial activity against Escherichia coli BAA 2340 assessed as reduction in microbial growth inhibition; type: functional

Work on `Oc1ccccc1Oc1ccccc1` yielded an MIC (Escherichia coli [1]) of 3.7 µg/mL (≈ 19.9 µM).
In the case of `Cc1ccc(Oc2ccccc2)c(O)c1`, the MIC (Escherichia coli [1]) is reported as 1 µg/mL (≈ 4.99 µM).
In the case of `Oc1cc(F)ccc1Oc1ccccc1`, the MIC (Escherichia coli [1]) is reported as 0.6 µg/mL (≈ 2.94 µM).
Work on `Oc1cc(Cl)ccc1Oc1ccccc1` yielded an MIC (Escherichia coli [1]) of 0.07 µg/mL (≈ 0.317 µM).
`Cc1csc(C(C)(O)c2nnc(Nc3ccn(Cc4c(F)cccc4F)n3)s2)n1` (centres undefined) showed an MIC [2] of 0.2 µM (≈ 0.0869 µg/mL).
With `O=C(c1ccc(Cl)cc1O)N1CCc2c(n(Cc3ccc(O)cc3)c3ccccc23)C1` the MIC (Moraxella catarrhalis) was 2 µg/mL (≈ 4.62 µM) and the MIC (Staphylococcus aureus [3]) was 1 µg/mL (≈ 2.31 µM).
Compound `CC(c1ccc(Cl)c(Cl)c1)n1cnc2cc3c(cc21)CCC3` (centres undefined) has an MIC (Staphylococcus aureus [4]) of 5.5 µg/mL (≈ 16.6 µM), an MIC (Staphylococcus aureus [5]) of 6.3 µg/mL (≈ 19 µM) and an IC50 [6] of 18 nM.
Work on `CC(c1ccc(Cl)c(Cl)c1)n1cnc2cc3c(cc21)CCCC3` (centres undefined) yielded an MIC (Staphylococcus aureus [4]) of 3.1 µg/mL (≈ 8.98 µM), an MIC (Staphylococcus aureus [5]) of 3.1 µg/mL (≈ 8.98 µM) and an IC50 [6] of 14 nM.
With `COc1ccc(Cn2cnc3cc4c(cc32)CCC4)cc1C` the MIC (Staphylococcus aureus [4]) was over 12.5 µg/mL, the MIC (Staphylococcus aureus [5]) was over 12.5 µg/mL and the IC50 [6] was 5 nM.
`Cc1ccc(Oc2coc(COc3ccccc3)cc2=O)c(C)c1` gave an MIC (Staphylococcus aureus [7]) of 1.56 µg/mL (≈ 4.85 µM) and an IC50 [8] of 380 µM.
For `Cc1cc(Cl)ccc1Oc1coc(/C=C/c2ccc[nH]2)cc1=O`, the IC50 [9] was 140 nM.
`Cc1cc(Cl)ccc1Oc1c[nH]c(COc2ccccc2)cc1=O` showed an IC50 [9] of 400 nM.
With `Cc1cc(Cl)ccc1Oc1cn(C)c(COc2ccccc2)cc1=O` the IC50 [9] was 110 nM.
For `Cc1ccc(Oc2cn(C)c(COc3ccccc3)cc2=O)c(C)c1`, the MIC (Staphylococcus aureus [7]) was 0.049 µg/mL (≈ 0.146 µM) and the IC50 [8] was 80 µM.
In the case of `O=[N+]([O-])c1ccc(Oc2ccc(Cl)cc2O)c(Cl)c1`, the MIC (Staphylococcus aureus [10]) is reported as 0.1 µg/mL (≈ 0.333 µM), the MIC (Staphylococcus aureus [11]) is reported as 0.3 µg/mL (≈ 1 µM) and the EC50 (HeLa) is reported as 29.3 µg/mL (≈ 97.6 µM). The MBC (Staphylococcus aureus [12]) was 0.5 µg/mL (≈ 1.67 µM), the MIC (Bacillus anthracis) was under 0.1 µg/mL and the EC50 [13] was 9.9 µg/mL (≈ 33 µM). It also gave an IC50 [14] of 300 nM.
For `OB1c2ccccc2N=C(S)N1c1cccnc1`, the MIC [15] was 8 µg/mL (≈ 31.4 µM).
In the case of `Cc1cc(=O)n(C)c2c3c4c(cc12)c(C)cc(=O)n4C(CN)CO3` (centres undefined), the MIC (Escherichia coli [16]) is reported as 0.5 µg/mL (≈ 1.54 µM), the MIC (Klebsiella pneumoniae [17]) is reported as 1 µg/mL (≈ 3.07 µM) and the MIC (Acinetobacter baumannii [18]) is reported as 2 µg/mL (≈ 6.15 µM). For the same compound, the MIC (Pseudomonas aeruginosa) was over 16 µg/mL, the MIC (Enterobacter cloacae) was 0.5 µg/mL (≈ 1.54 µM) and the MIC (Staphylococcus aureus [19]) was 0.05 µg/mL (≈ 0.154 µM).
With `Cc1c(CN(C)C(=O)/C=C/c2cnc3c(c2)C(C)(C)C(=O)N3)oc2ccccc12` the MIC (Staphylococcus aureus [20]) was 0.015 µg/mL (≈ 0.0385 µM) and the MIC (Staphylococcus aureus [21]) was 0.015 µg/mL (≈ 0.0385 µM).
Work on `Cc1cc(=O)n(C)c2c3c4c(cc12)c(C)cc(=O)n4CCO3` yielded an MIC (Escherichia coli [16]) of over 32 µg/mL, an MIC (Klebsiella pneumoniae [17]) of over 32 µg/mL and an MIC (Acinetobacter baumannii [18]) of 16 µg/mL (≈ 54 µM). It also gave an MIC (Pseudomonas aeruginosa) of over 32 µg/mL, an MIC (Enterobacter cloacae) of over 32 µg/mL and an MIC (Staphylococcus aureus [19]) of 0.06 µg/mL (≈ 0.202 µM).
`CN1C(=O)[C@@H](c2cc(Cl)c(O)c(Cl)c2)NC(=O)[C@@H]2NC(=O)[C@@H](c3cc(Cl)c(O)c(Cl)c3)NC(=O)[C@H](NC(=O)C(=O)c3cc(Cl)c(O)c(Cl)c3)Cc3cc4ccc(cc4[nH]3)-c3cc2cc(c3O)Oc2ccc(cc2)C[C@H]1C(=O)N[C@@H](C(=O)O)c1ccc(O)cc1` gave an IC50 [22] of 500 nM and an MIC (Staphylococcus aureus [23]) of 2 µg/mL (≈ 1.51 µM).
With `O=c1ccn(Cc2cccc(Br)c2)cc1C(O)c1c(Cl)cccc1Cl` (centres undefined) the IC50 [9] was 430 nM.
`Cc1c(CN(C)C(=O)/C=C/c2cnc3c(c2)CC(N)C(=O)N3)oc2ccccc12.Cl` (centres undefined) gave an MIC (Staphylococcus aureus [4]) of 0.031 µg/mL, an MIC (Klebsiella pneumoniae [24]) of 8 µg/mL and an MIC (Acinetobacter baumannii [25]) of 4 µg/mL. The MIC (Escherichia coli [26]) was 4 µg/mL.
With `Cc1c(CN(C)C(=O)/C=C/c2cnc3c(c2)C2(CCC2)C(=O)N3)sc2ccccc12` the MIC (Staphylococcus aureus [20]) was 0.015 µg/mL (≈ 0.0359 µM) and the MIC (Staphylococcus aureus [21]) was 0.015 µg/mL (≈ 0.0359 µM).

— ChEMBL document CHEMBL5230110, “FabI (enoyl acyl carrier protein reductase) - A potential broad spectrum therapeutic target and its inhibitors” (Eur J Med Chem, 2020)
